Assay [1] has as its system SOD1-G93A mice. Description: Survival (time taken until death) of SOD1-G93A mice. The format is in vivo. On the procedure:
Experimental set-up: 50 day old female SOD1-G93A mice were treated with either 5 mg/kg AMD3100 alone, 896 mg/kg Na-L-lactate alone or a combination of […] AMD3100 and 896 mg/kg Na-L-lactate twice a week, starting at 50 days old (for ALS), until death. All treatments were administered subcutaneously. The mice were weighed once a week following the various treatments and tested for motor function, also once a week. The time taken until death was recorded.
Experimental set-up: 50 day old female SOD1-G93A mice were treated with either 5 mg/kg AMD3100 alone or a complex of 0.25 mg/kg AMD3100+0.08 mg/kg Zinc or 0.125 mg/kg AMD3100+0.04 mg/kg Zinc twice a week, starting at 50 days old until death. All treatments were administered subcutaneously. The mice were weighed once a week following the various treatments and tested for motor function, also once a week. The time taken until death was recorded.
Experimental set-up: 50 day old male SOD1-G93A mice were treated with either 5 mg/kg AMD3100 alone or a complex of 0.5 mg/kg AMD3100+0.17 mg/kg Zinc+896 mg/kg lactate twice a week, starting at 50 days old, till death. All treatments were administered subcutaneously. The time taken until death was recorded.

Another assay concerns AP. The experiment in a line: AP by ELISA in 3×Tg-AD mice. The assay is classed as in vivo. The conditions noted are these: membrane fraction, 0.5 mg/kg AMD3100 (+0.17 mg/kg Zn+896 mg/kg lactate), vs PBS. On the procedure: Experimental set-up: 9 month old 3×Tg-AD mice were treated with PBS or 0.5 mg/kg AMD3100 or 0.5 mg/kg AMD3100 0.17 mg/kg Zn or 0.5 mg/kg AMD3100+0.17 mg/kg Zn+896 mg/kg lactate once a week. All treatments were administered subcutaneously. After 3 month of treatment, all mice were subjected to Y maze test in order to evaluate their cognitive function. Each mouse was allowed to explore two arms of the Y maze for 5 min, rested for another 5 min, and then explored all 3 arms of the Y maze for another 5 min.
(In general: An ELISA detects its analyte on a solid surface through an enzyme-linked reagent.)

For the next assay, the system named is MCT1. The conditions noted are these: female SOD1-G93A mice; 5 mg/kg AMD3100; spinal cord (FIG. 4A); vs control.
Assay [2] has as its system SOD1-G93A mice. The conditions noted are these: SOD1-G93A transgenic mice; previously shown; cited from earlier work.
Assay [3] relates to SOD1-G93A mice. The conditions noted are these: SOD1-G93A transgenic mice; previously shown; cited from earlier work. This is another data set of the same source.
Assay [4] relates to SOD1-G93A mice. The conditions noted are these: SOD1-G93A transgenic mice; previously shown; cited from earlier work. The source holds these as a separate data set.

Description for MCT1: The control group is set to 100%. Results are mean ±S.E.M, T-test; *p<0.05.

`c1cc(CN2CCCNCCNCCCNCC2)ccc1CN1CCCNCCNCCCNCC1` [AMD3100, 1,1′-[1,4-phenylenebis(methylene)]bis [1,4,8,11-tetraazacyclotetradecane]]: the median survival in the assay on SOD1-G93A mice [1] (female SOD1-G93A mice, 5 mg/kg AMD3100 s.c. twice a week from 50 days old) is 144 days; in the assay on SOD1-G93A mice [1] (male SOD1-G93A mice, 5 mg/kg AMD3100 s.c. twice a week from 50 days old) it was 140 days. Moreover, the “AP change by ELISA” value in the assay on AP is recorded as “Reduction in AP was statistically significant”. Also, the MCT1 levels entry with MCT1 is on record as “increase”. The “survival (in words)” value with SOD1-G93A mice [2] was “significantly increased”. Besides, the “motor function (in words)” value with SOD1-G93A mice [3] is on record as “improved”. Besides, in the assay with SOD1-G93A mice [4], the “disease onset (in words)” value was “delayed”.
Turning to `C[C@H](O)C(=O)[O-].[Na+]` [lactate, Na-L-lactate], the median survival in the assay with SOD1-G93A mice [1] (female SOD1-G93A mice, 896 mg/kg lactate s.c. twice a week from 50 days old) is 148 days.

Values taken from patent publication US20180296551A1, “METHODS AND COMPOSITIONS FOR TREATING NEURODEGENERATIVE DISEASES” (priority 2015, published 2018).
